# Experiments:
# phosphorylation of STAT3 [1] = test: SUM-159-MSD-pSTAT3 cell-based assay; details: SUM159; Sum-159 breast cancer cells, human IL-6 stimulated; read-out: IC50, inhibits the phosphorylation of STAT3
# Procedure: The SUM-159-MSD-pSTAT3 cell-based assay is used to examine the potency of compounds at blocking STAT3 phosphorylation in breast cancer cells. Sum-159 cells (Asterand) are grown and maintained in HAM's F-12 medium (Gibco 11765-054) with 5% FBS, insulin (5 microgram/mL) and hydrocortisone (1 μg/ml). Cells are collected, counted, plated at 4×10^4 cells/well in 96-well plates, and cultured for overnight at 37° C. with 5% CO2. Culture medium is then removed and replaced with F-12-medium containing either vehicle (DMSO) alone or 2× final concentrations of compounds across a range from 0-20 μM at 1:3 dilutions (10 concentration points). After incubation for five additional hours, medium is removed and cells are treated with 100 microliters of 2× human IL-6 (20 ng/mL diluted in F-12 complete medium) and incubated for an additional 20 minutes at 37° C. in 5% CO2. […] The 96-well plates are sealed and then mixed for 2 minutes on an orbital shaker at room temperature, and then immediately frozen at −80° C. overnight. pSTAT3 is detected with the use of the MA6000 MSD Whole Cell Lysate Kit for Phospho-STAT-3 (Tyr 705) (Meso Scale Diagnostics, #K150DID-2) as described above. Plates are read by using a MSD plate reader. Data are analyzed using Graph Pad program.
# JAK2 = JAK2 (Homo sapiens, UniProt O60674); test: JAK LanthaScreen Kinase Assay (TR-FRET), JAK2; format: biochemical; parameters: purchased Life Technologies #PV4844; details: enzyme assay, 5 micromolar ATP, n=1; read-out: IC50 against JAK2
# Source text: (§1) The JAK LanthaScreen™ Kinase Assay (Life Technologies, #PV4844) is used to determine compound IC50 values against the JAK1, JAK2, and JAK3 kinases. This kinase assay is a Time Resolved Fluorescence Resonance Energy Transfer (TR-FRET) assay format that uses long-lifetime terbium (Tb) labeled antibody as the donor species and Green Fluorescent Protein-Signal Transducers and Activators of Transcription (GFP-STAT1) as the acceptor species.
# (§2) The TR-FRET ratio is used to monitor JAK1, JAK2, or JAK3 activity where an increase in phosphorylation of the GFP-STAT1 results in an increase in the TR-FRET ratio. Perform the kinase reaction using a 12.5 microliter reaction volume in shallow black 384-well Proxiplate (PerkinElmer, #6008260). […] Incubate at room temperature for 90 minutes, and read in an EnVision plate reader (PerkinElmer, #2104-0010) with 340 nm wavelength excitation filter and emission filters of 520 nm and 495 nm wavelengths. The ratio is derived from the emission wavelength for the GFP-STAT1 which is measured at 520 nanometer versus the emission at 495 nanometer for the Tb-anti-pSTAT1[pTyr701]. Derive the IC50 value for the compound using percent inhibition data, which is calculated from the reaction data relative to on-plate controls (active enzyme versus 2.0 micromolar control-inhibited enzyme). […]
# phosphorylation of STAT3 [2] = test: Mia-Paca2-MSD-pSTAT3 cell-based assay; details: Homo sapiens, MIA PaCa-2; Mia-paca2 pancreatic cancer cells, stimulated with conditioned medium; read-out: IC50, inhibits the phosphorylation of STAT3
# Procedure: The Mia-Paca2-MSD (MesoScale Diagnostics)-pSTAT3 cell-based assay is used to examine the potency of compounds at blocking STAT3 phosphorylation in pancreatic cancer cells. Mia-paca2 cells (ATCC) are grown in DMEM complete medium supplemented with 10% FBS at 37° C. in incubator with 5% CO2. Cells are then collected, counted, plated at 4×10^4 cells/well in 96-well plates, and cultured for overnight at 37° C. with 5% CO2. Culture medium is removed from the cells and replaced with serum-free medium containing either vehicle alone (DMSO) or 2× final concentrations of compounds across a range from 0-20 μM at 1:3 dilution (10 dilutions). […] After stimulation, all medium is manually removed as above and cells are lysed in 50 microliters of ice cold 1×MSD lysis buffer (MesoScale Diagnostics, K150DID-2) containing 1×HALT protease and phosphatase inhibitor cocktail ((Thermo Scientific, 78441). The 96-well plates are sealed and then mixed for 2 minutes on an orbital shaker at room temperature, and then immediately frozen at −80° C. overnight. pSTAT3 is detected with the use of the MA6000 MSD Whole Cell Lysate Kit for Phospho-STAT-3 (Tyr 705) (MesoScale Diagnostics, #K150DID-2) as following, plates were blocked with blocking buffer at room temperature for 1-2 hours with shaking, and then washed 4× with washing buffer. […]
# JAK1 = biological target: T1, JAK1 (Homo sapiens, UniProt P23458); test: JAK LanthaScreen Kinase Assay (TR-FRET), JAK1; format: biochemical; details: enzyme assay, 20.0 micromolar ATP, n=3; read-out: IC50 against JAK1
# T1 construct: purchased Life Technologies #PV4844
# Source text: as §1, §2
# JAK2, sequence (O60674 whole entry): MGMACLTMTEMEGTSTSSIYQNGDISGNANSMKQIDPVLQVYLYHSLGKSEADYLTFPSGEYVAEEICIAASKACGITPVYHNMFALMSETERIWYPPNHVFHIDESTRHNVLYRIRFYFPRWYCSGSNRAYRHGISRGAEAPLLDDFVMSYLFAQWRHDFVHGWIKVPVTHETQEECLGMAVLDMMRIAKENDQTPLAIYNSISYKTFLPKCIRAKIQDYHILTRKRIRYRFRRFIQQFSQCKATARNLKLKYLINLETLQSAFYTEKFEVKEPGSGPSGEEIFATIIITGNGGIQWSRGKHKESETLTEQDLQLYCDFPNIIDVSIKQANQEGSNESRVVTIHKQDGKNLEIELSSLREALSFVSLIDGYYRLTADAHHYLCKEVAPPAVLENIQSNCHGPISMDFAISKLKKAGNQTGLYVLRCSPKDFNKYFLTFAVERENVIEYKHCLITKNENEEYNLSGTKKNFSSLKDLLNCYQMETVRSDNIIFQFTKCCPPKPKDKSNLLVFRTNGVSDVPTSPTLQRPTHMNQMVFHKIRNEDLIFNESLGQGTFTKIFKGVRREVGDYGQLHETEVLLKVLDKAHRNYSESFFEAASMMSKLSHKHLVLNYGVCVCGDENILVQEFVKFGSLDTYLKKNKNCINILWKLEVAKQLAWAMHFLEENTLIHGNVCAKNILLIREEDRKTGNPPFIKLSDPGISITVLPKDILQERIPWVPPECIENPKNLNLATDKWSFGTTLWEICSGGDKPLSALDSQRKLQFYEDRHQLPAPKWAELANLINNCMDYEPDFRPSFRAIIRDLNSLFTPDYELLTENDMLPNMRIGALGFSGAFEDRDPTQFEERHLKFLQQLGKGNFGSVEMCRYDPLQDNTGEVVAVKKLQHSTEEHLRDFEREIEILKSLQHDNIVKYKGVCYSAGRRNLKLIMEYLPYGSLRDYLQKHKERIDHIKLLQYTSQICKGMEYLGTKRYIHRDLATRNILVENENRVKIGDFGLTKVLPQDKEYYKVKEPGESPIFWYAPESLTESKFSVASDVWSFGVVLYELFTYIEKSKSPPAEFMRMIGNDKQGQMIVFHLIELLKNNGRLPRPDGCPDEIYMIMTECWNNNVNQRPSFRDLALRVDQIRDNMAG
# T1 sequence (P23458 whole entry): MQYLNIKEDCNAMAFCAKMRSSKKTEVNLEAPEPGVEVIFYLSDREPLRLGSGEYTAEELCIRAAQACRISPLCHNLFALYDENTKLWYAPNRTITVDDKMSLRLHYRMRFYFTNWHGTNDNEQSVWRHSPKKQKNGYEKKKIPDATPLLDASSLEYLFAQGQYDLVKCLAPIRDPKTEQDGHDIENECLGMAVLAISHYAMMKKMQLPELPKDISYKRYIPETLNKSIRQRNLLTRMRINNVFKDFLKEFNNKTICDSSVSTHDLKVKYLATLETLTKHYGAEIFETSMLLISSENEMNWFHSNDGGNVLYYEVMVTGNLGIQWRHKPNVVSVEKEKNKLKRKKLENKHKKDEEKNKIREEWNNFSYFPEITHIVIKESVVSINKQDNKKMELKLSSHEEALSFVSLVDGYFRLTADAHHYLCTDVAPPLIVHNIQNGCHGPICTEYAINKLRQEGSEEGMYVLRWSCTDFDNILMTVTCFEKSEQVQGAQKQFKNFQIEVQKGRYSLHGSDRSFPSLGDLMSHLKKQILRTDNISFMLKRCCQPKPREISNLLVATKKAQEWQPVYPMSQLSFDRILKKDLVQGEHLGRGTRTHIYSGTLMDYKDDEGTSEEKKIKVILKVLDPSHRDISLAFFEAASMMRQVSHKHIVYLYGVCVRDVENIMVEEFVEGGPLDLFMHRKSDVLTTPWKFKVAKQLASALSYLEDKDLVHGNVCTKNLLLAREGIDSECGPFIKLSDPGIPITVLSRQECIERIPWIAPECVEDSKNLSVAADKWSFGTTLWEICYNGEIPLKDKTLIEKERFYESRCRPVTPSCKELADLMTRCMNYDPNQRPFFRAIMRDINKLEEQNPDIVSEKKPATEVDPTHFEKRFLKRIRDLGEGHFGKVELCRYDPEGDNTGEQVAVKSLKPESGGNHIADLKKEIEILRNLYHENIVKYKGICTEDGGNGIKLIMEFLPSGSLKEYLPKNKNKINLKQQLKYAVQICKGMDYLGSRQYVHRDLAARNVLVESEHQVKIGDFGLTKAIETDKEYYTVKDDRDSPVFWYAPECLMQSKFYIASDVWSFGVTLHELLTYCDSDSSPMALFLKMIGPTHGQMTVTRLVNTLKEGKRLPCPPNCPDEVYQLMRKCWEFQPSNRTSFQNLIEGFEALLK
smiles,measurement,setting,value
"Cc1cc(Nc2ccc3ncn([C@@H]4CCc5ccc(F)cc54)c3n2)[nH]n1.Cl.Cl [Example 1, 3-[(1R)-6-fluoro-2,3-dihydro-1H-inden-1-yl]-N-(3-methyl-1H-pyrazol-5-yl)-3H-imidazo[4,5-b]pyridin-5-amine dihydrochloride]",IC50,phosphorylation of STAT3 [1],21 nM
same,IC50,JAK2,1.7 nM
same,IC50,phosphorylation of STAT3 [2],12 nM
same,IC50,JAK1,1.7 nM
